Source: patent publication US20040106626A1, “6-Membered unsaturated heterocyclic compounds useful for selective inhibition of the coagulation cascade” (Pharmacia Corporation, priority 2001, published 2004)

Experiments:
Format in all cases: biochemical
[1] = target: T1, recombinant soluble tissue factor and recombinant human factor VIIa (TF-VIIa) (Homo sapiens, UniProt P08709); assay: TF-VIIa assay (chromogenic substrate hydrolysis); settings: reported only as less than or greater than 0.1 uM
T1 construct: conversion of coagulation factor VII to VIIa by factor Xa; purchased American Diagnostica, Greenwich CT; host or cells: soluble TF made in house in E. coli
T1 sequence (P08709 213-466 limits assumed): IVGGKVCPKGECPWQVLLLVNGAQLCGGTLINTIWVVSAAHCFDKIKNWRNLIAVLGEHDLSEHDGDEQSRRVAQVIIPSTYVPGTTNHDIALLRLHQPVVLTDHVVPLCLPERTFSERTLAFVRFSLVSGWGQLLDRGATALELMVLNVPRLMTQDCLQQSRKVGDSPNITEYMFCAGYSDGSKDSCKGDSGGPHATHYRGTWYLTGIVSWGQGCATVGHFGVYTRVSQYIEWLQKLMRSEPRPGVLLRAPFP
T1 sequence (P08709 61-212 limits assumed): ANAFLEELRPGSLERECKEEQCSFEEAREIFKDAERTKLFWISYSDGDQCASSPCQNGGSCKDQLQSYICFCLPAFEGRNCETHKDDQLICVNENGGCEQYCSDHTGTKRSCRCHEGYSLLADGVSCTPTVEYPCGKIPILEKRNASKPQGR
T1 sequence (P13726 33-251 partner limits assumed): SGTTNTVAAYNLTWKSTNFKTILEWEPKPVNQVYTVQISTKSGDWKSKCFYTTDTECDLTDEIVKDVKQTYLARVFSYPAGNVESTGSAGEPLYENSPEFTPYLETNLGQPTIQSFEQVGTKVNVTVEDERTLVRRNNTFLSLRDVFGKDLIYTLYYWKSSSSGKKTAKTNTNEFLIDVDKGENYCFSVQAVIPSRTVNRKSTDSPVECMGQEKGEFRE
Protocol: In this assay 100 nM recombinant soluble tissue factor and 2 nM recombinant human factor VIIa are added to a 96-well assay plate containing 0.4 mM of the substrate, N-methylsulfonyl-D-phe-gly-arg-p-nitroaniline and either inhibitor or buffer (5 mM CaCl2, 50 mM Tris-HCl, pH 8.0, 100 mM NaCl, 0.1% BSA). […] Percent inhibition of TF-VIIa activity is calculated from OD405 nm value from the experimental and control sample.
(§1) Recombinant human VIIa was purchased from American Diagnostica, Greenwich CT and chromogenic substrate N-methylsulfonyl-D-phe-gly-arg-p-nitroaniline was prepared by American Peptide Company, Inc., Sunnyvale, Calif. Factor Xa was obtained from Enzyme Research Laboratories, South Bend Ind., thrombin from Calbiochem, La Jolla, Calif., and trypsin and L-BAPNA from Sigma, St. Louis Mo.

Human thrombin = target: T2, Human thrombin (Homo sapiens, UniProt P00734); assay: Thrombin assay (chromogenic substrate); settings: reported only as less than or greater than 30 uM; read-out: Thrombin (II) IC50
T2 construct: converts prothrombin (II) to thrombin (IIa); purchased Calbiochem, La Jolla, Calif
Protocol: Percent inhibition of thrombin activity is calculated from OD405 nm value from the experimental and control sample.
as §1

Human factor Xa = target: T3, Human factor Xa (Homo sapiens, UniProt P00742); assay: Xa assay (chromogenic substrate S-2765); settings: reported only as less than or greater than 30 uM; read-out: Factor Xa (II) IC50
T3 construct: purchased Enzyme Research Laboratories, South Bend Ind
T3 sequence (P00742 235-488 limits assumed): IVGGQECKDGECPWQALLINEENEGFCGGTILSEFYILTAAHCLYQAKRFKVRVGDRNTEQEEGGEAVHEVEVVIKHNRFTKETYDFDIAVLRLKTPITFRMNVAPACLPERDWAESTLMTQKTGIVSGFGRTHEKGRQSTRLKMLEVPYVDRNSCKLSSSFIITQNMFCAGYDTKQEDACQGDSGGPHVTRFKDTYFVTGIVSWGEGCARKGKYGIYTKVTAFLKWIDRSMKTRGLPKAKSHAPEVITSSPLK
T3 sequence (P00742 41-179 limits assumed): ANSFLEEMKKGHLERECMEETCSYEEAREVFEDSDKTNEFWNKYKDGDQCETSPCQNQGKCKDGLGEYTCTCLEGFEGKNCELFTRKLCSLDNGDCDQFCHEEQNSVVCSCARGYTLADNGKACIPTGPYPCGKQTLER
Protocol: Human factor Xa (0.3 nM) and 0.15 mM -a-Benzyloxycarbonyl-D-arginyl-L-glycyl-L-arginine-p-nitroaniline-dihydrochloride (S-2765) are added to a 96-well assay plate containing either inhibitor or buffer (50 mM Tris-HCl, pH 8.0, 100 mM NaCl, 0.1% BSA). The reaction, in a final volume of 100 ul is measured immediately at 405 nm to determine background absorbance. The plate is incubated at room temperature for 60 min, at which time the rate of hydrolysis of the substrate is measured by monitoring the reaction at 405 nm for the release of p-nitroaniline. Percent inhibition of Xa activity is calculated from OD405 nm value from the experimental and control sample.
Recombinant soluble TF, consisting of amino acids 1-219 of the mature protein sequence was expressed in E. coli and purified using a Mono Q Sepharose FPLC. Recombinant human VIIa was purchased from American Diagnostica, Greenwich CT and chromogenic substrate N-methylsulfonyl-D-phe-gly-arg-p-nitroaniline was prepared by American Peptide Company, Inc., Sunnyvale, Calif. Factor Xa was obtained from Enzyme Research Laboratories, South Bend Ind., thrombin from Calbiochem, La Jolla, Calif., and trypsin and L-BAPNA from Sigma, St. Louis Mo. The chromogenic substrates S-2765 and S-2238 were purchased from Chromogenix, Sweden.

[2] = test system: Normal human pooled plasma; assay: Prothrombin time (PT) clotting assay; settings: concentration at which prothrombin time is prolonged by 2x normal, reported as less than or greater than 50 uM
Protocol: The prothrombin time (PT) assay is a clotting assay that is used to determine deficiencies of clotting factor activity in the extrinsic pathway. The assay measures time to clotting after the addition of thromboplastin (human tissue factor). Normal human pooled plasma is incubated with 100 uM compound or saline in a coagulation machine. Thromboplastin is added and time to clotting is measured. Compounds with greater than 3×normal PT of 11.0 seconds are further analyzed by concentration response to determine at what concentration the prothrombin time is prolonged by 2×normal.

Structure (SMILES)	IC50 [1] [nM]	IC50 (Human thrombin) [µM]	IC50 (Human factor Xa) [µM]	PT (Prothrombin time) 2xPT [2] [µM]
CC(C)Nc1ncc(-c2cc(N)cc(C(=O)NC(C)c3ccccc3)c2)n(CC(=O)NCc2ccc(C(=N)N)cc2)c1=O (racemic) [Example 56]	< 100	< 30	> 30	<50.0
CC(C)Nc1nc(Br)c(-c2cc(N)cc(C(=O)O)c2)n(CC(=O)NCc2ccc(C(=N)N)cc2)c1=O [Example 3, 3-Amino-5-[1-[2-({4-[amino(imino)methyl]benzyl}amino)-2-oxoethyl]-3-bromo-5-(isopropylamino)-6-oxo-1,6-dihydropyrazin-2-yl]benzoic Acid]	< 100	–	> 30	<50.0
COC(=O)c1cc(N)cc(-c2c(Br)nc(NC(C)C)c(=O)n2CC(=O)NCc2ccc(C(=N)N)cc2)c1 [Example 4, Methyl 3-amino-5-[1-[2-({4-[amino(imino)methyl]benzyl}amino)-2-oxoethyl]-3-bromo-5-(isopropylamino)-6-oxo-1,6-dihydropyrazin-2-yl]benzoate]	< 100	> 30	> 30	>50.0
CC(C)CCNC(=O)c1cc(N)cc(-c2cnc(NC(C)C)c(=O)n2CC(=O)NCc2ccc(C(=N)N)cc2)c1.O=C(O)C(F)(F)F.O=C(O)C(F)(F)F [Example 6]	< 100	> 30	> 30	<50.0
CCC(C)NC(=O)c1cc(N)cc(-c2cnc(NC(C)C)c(=O)n2CC(=O)NCc2ccc(C(=N)N)cc2)c1.O=C(O)C(F)(F)F.O=C(O)C(F)(F)F (centres unmarked) [Example 7]	< 100	< 30	> 30	<50.0
CC(C)Nc1ncc(-c2cc(N)cc(C(=O)NCc3cccc(C(F)(F)F)c3)c2)n(CC(=O)NCc2ccc(C(=N)N)cc2)c1=O.O=C(O)C(F)(F)F.O=C(O)C(F)(F)F [Example 10]	< 100	> 30	> 30	<50.0
CC(C)Nc1ncc(-c2cc(N)cc(C(=O)NC3CCC3)c2)n(CC(=O)NCc2ccc(C(=N)N)cc2)c1=O.O=C(O)C(F)(F)F.O=C(O)C(F)(F)F [Example 15]	< 100	< 30	> 30	<50.0
CC(C)Nc1ncc(-c2cc(N)cc(C(F)(F)F)c2)n(CC(=O)NCc2ccc(C(=N)N)cc2)c1=O [Example 18]	< 100	> 30	> 30	<50.0
CC(C)Nc1ncc(-c2cc(N)cc(C(=O)NCc3ccccc3)c2)n(CC(=O)NCc2ccc(C(=N)N)cc2)c1=O.O=C(O)C(F)(F)F.O=C(O)C(F)(F)F [Example 24]	< 100	> 30	> 30	<50.0
CC(C)Nc1ncc(-c2cc(N)cc(C(=O)N(C)Cc3ccccc3)c2)n(CC(=O)NCc2ccc(C(=N)N)cc2)c1=O.O=C(O)C(F)(F)F.O=C(O)C(F)(F)F [Example 28]	< 100	> 30	> 30	<50.0
CNc1ncc(-c2cc(N)cc(N)c2)n(CC(=O)NCc2ccc(C(=N)N)cc2)c1=O [Example 35]	< 100	> 30	> 30	<50.0
CC(C)Nc1ncc(-c2cc(N)cc(C(F)(F)F)c2)n(CC(=O)NCc2ccc(C(=N)N)c(O)c2)c1=O [Example 49]	> 100	> 30	> 30	<50.0
CC(C)Nc1ncc(-c2cc(N)cc(NC(=O)C(C)C)c2)n(CC(=O)NCc2ccc(C(=N)N)cc2)c1=O [Example 50, N-{3-amino-5-[1-[2-({4-[amino(imino)methyl]benzyl}amino)-2-oxoethyl]-5-(isopropylamino)-6-oxo-1,6-dihydropyrazin-2-yl]phenyl}-2-methylpropanamide]	< 100	< 30	> 30	<50.0
CC(C)Nc1ncc(-c2cc(N)cc(C(F)(F)F)c2)n(CC(=O)NCc2ccc(C(=N)N)c(F)c2F)c1=O [Example 51]	> 100	> 30	> 30	<50.0
COc1cc(N)cc(-c2cnc(NC(C)C)c(=O)n2CC(=O)NCc2ccc(C(=N)N)cc2)c1 [Example 53, N-{4-[Amino(imino)methyl]benzyl}-2-[6-(3-amino-5-methoxyphenyl)-3-(isopropylamino)-2-oxopyrazin-1 (2H)-yl]acetamide]	< 100	> 30	> 30	<50.0
CC(C)Nc1ncc(-c2cc(N)cc(O)c2)n(CC(=O)NCc2ccc(C(=N)N)cc2)c1=O [Example 54]	< 100	> 30	> 30	<50.0
CC(C)Nc1ncc(-c2cc(N)cc(C(=O)N[C@@H](C)c3ccccc3)c2)n(CC(=O)NCc2ccc(C(=N)N)cc2)c1=O [Example 57]	< 100	< 30	> 30	<50.0
CC(C)Nc1ncc(-c2cc(N)cc(C(=O)N[C@H](C)c3ccccc3)c2)n(CC(=O)NCc2ccc(C(=N)N)cc2)c1=O [Example 58]	< 100	< 30	> 30	<50.0
CC(C)Nc1ncc(-c2cc(N)cc(C(=O)NCc3cc(C(F)(F)F)cc(C(F)(F)F)c3)c2)n(CC(=O)NCc2ccc(C(=N)N)cc2)c1=O [Example 59]	> 100	> 30	> 30	>50.0
CC[C@H](C)NC(=O)c1cc(N)cc(-c2cnc(NC(C)C)c(=O)n2CC(=O)NCc2ccc(C(=N)N)cc2)c1 [Example 71]	–	< 30	–	<50.0
CC(C)Nc1ncc(-c2cc(N)cc(NCC3CCCNC3)c2)n(CC(=O)NCc2ccc(C(=N)N)cc2)c1=O.O=C(O)C(F)(F)F.O=C(O)C(F)(F)F (centres unmarked) [Example 147]	< 100	–	–	<50.0
CC(C)Nc1ncc(-c2cc(N)cc(NC3CCCC3)c2)n(CC(=O)NCc2ccc(C(=N)N)cc2)c1=O.O=C(O)C(F)(F)F.O=C(O)C(F)(F)F [Example 148]	< 100	–	–	<50.0
CC(C)Nc1nc(Cl)c(-c2cc(N)cc(O)c2)n(CC(=O)NCc2ccc(C(=N)N)cc2)c1=O.O=C(O)C(F)(F)F [Example 178]	< 100	–	> 30	<50.0
CC[C@H](C)NC(=O)c1cc(N)cc(-c2cnc(NC3CC3)c(=O)n2CC(=O)NCc2ccc(C(=N)N)cc2)c1.O=C(O)C(F)(F)F.O=C(O)C(F)(F)F [Example 184]	–	< 30	–	<50.0
CC(C)Nc1ncc(-c2cc(N)c3[nH]ccc3c2)n(CC(=O)NCc2ccc(C(=N)N)cc2)c1=O.O=C(O)C(F)(F)F.O=C(O)C(F)(F)F [Example 249]	< 100	> 30	–	<50.0
N=C(N)c1ccc(CNC(=O)Cn2c(-c3cc(N)cc(C(=O)OCc4ccccc4)c3)cnc(NC3CC3)c2=O)cc1.O=C(O)C(F)(F)F [Example 251]	< 100	> 30	–	<50.0
CC[C@@H](C)NC(=O)c1cc(N)cc(-c2cnc(NC(C)C)c(=O)n2CC(=O)NCc2ccc(C(=N)N)c(O)c2)c1.O.O.O=C(O)C(F)(F)F [Example 254]	< 100	> 30	–	<50.0
